The record followed here is patent publication US20060134729A1, “Process for the universal detection of microorganisms and reaction environment permitting the implementation of the process” (HEMOSYSTEM, a corporation of France, priority 2002, published 2006).

Test [1] deals with Pseudomonas aeruginosa. As to the kind of experiment: Marking with nisine/EDTA/N octyl glucopyranoside. It counts as cell-based. The following applies: NOG 0.25% and 0.5% with nisine 0.2 μg/ml, EDTA 7.5 mM. Here is the method: (§1) 100 μg/ml: […] (starting material at 2.5% weight/weight) QSP 50 ml distilled water. • EDTA 100 mM: […] disodic EDTA, QSP 50 ml distilled water, • N octyl glucopyranoside 5%: 2.5 g in 50 ml distilled water • 20, 10, 5 or 2.5 ml NOG at 5% • +3.75 ml EDTA 100 mM • +0.1 ml […] 100 μg/ml • QSP 50 ml distilled water • This solution is at pH 4.8.

The subject of test [2] is Staphylococcus epidermidis. As to the kind of experiment: Marking with nisine/EDTA/N octyl glucopyranoside. Format: cell-based. The following applies: NOG 0.25% and 0.5% with nisine 0.2 μg/ml, EDTA 7.5 mM. Here is the method: as §1
Test [3] relates to Escherichia coli. The following applies: EDTA 5 mM; PBS, distilled water, TSB, plasma. The method, then: (§2) Prepare a solution of PicoGreen at 1/2000 (molecular probe) in PBS buffer. EDTA 5 mM: 0.093 g disodic EDTA, QSP 50 mL distilled water. Suspension of bacteria prepared in PBS in distilled water in a TSB (tryptone soy broth) environment and in plasma. • Escherichia coli (CIP 105901) • Staphylococcus epidermidis (CIP 68.21) Adjust the preparations to obtain a suspension with 10^3 bacteria/ml. • 1.2 mL of marking solution • +3 mL of bacterial suspension in the various environments • Incubation 15 minutes at 22° C. • +7 mL of EDTA solution • Filtration on char filter 0.4 μm porosity. III Analysis and Results After filtration, the filter is analyzed by cytometry in solid phase and the results are expressed as the number of fluorescent bacteria.

For test [4], the system named is Staphylococcus epidermidis. The following applies: EDTA 5 mM; PBS, distilled water, TSB, plasma. The method, then: as §2
Test [5] concerns Escherichia coli. As to the kind of experiment: PicoGreen DNA marking with association nisine/EDTA, cytometry in solid phase. Format: cell-based. The method, then:
(§3) Prepare a solution of PicoGreen at 1/2000 (molecular probe) in PBS buffer (saline phosphate buffer, pH 7.4).
Nisine 10 μg/ml: 0.02 g nisine (starting material at 2.5% weight/weight) QSP 50 ml distilled water. • EDTA 20 mM: 0.372 g disodic EDTA, QSP 50 ml of distilled water, • Prepare a range of EDTA with 0.25; 2.5; 12.5 and 18.75 ml of EDTA 20 mM (concentration range 0.1; 1; 5 and 7.5 mM), • Add 50, 250, 500 μl or 1 ml nisine 10 μg/ml (concentration range […]; 0.05; 0.1 and […]), • QSP 50 ml of distilled water. Suspension of Bacteria Prepared in PBS • Escherichia coli (CIP 105901)
(§4) Adjust the preparations to obtain a suspension with 10^3 bacteria/ml.
• 1.2 ml of marking solution • +3 ml bacterial suspension • Incubation 15 minutes at 22° C. • +7 ml of solution of nisine or nisine/EDTA • Filtration on char filter 0.4 μm porosity. III Analysis and Results
After filtration, the filter is analyzed by cytometry in solid phase and the results expressed as the number of bacteria detected in cytometry in solid phase and as a percentage of bacteria detected relative to the method of enzymatic detection.

In test [6] the test system is Escherichia coli, Serratia marcescens, Staphylococcus epidermidis. The test can be described thus: Optimization of nisine/EDTA concentrations, entirety of bacteria tested. It counts as cell-based. Here is the method: as §3
(§5) […] nisine (starting material at 2.5% weight/weight) in 50 ml distilled water or 10 μg/ml,
(§6) Nisine 0.05 μg/ml/EDTA 7.5 mM: 250 μl nisine 10 μg/ml +0.140 g disodic EDTA, QSP 50 mL distilled water,
(§7) Nisine 0.1 μg/ml/EDTA 7.5 mM: […] nisine 10 μg/ml +0.140 g disodic EDTA, QSP 50 mL distilled water,
(§8) Nisine 0.5 μg/ml/EDTA 7.5 mM: 2.5 ml nisine 10 μg/ml+0.140 g disodic EDTA, QSP 50 mL water.
(§9) • Escherichia coli (CIP 105901) • Staphylococcus epidermidis (CIP 68.21) • Serratia marcescens (CIP 103716)
as §4
(§10) • 1.2 mL marking solution • +3 mL bacterial suspension • Incubation 15 minutes at 22° C. • +7 ml solution of nisine/EDTA at different concentrations • Filtration on char filter 0.4 μm porosity. III Analysis and Results
(§11) After filtration, the filter is analyzed by cytometry in solid phase and the results expressed as the number of bacteria detected in cytometry in solid phase.

Test [7] relates to Staphylococcus epidermidis. The test can be described thus: PicoGreen DNA marking with nisine alone, cytometry in solid phase. It counts as cell-based. The following applies: nisine solutions 2, 10, 50 μg/ml, bacteria in PBS. Here is the method:
The use of nisine solely as a permeabilizing agent for facilitating penetration of the marking agent.
Prepare a series of dilutions of nisine (starting material at 2.5% weight/weight) in distilled water: • 0.1 g nisine in 50 ml distilled water=solution 50 μg/ml, • 0.02 g of nisine in 50 ml distilled water=solution 10 μg/ml, • 0.004 g of nisine in 50 ml distilled water=solution 2 μg/ml. Suspension of Bacteria Prepared in PBS • Escherichia coli (CIP 105901) • Staphylococcus epidermidis (68.21)
Adjust the preparations in order to obtain a suspension with 10^4 bacteria/ml.

Test [8] has as its system Escherichia coli. As to the kind of experiment: Optimization of nisine/EDTA concentrations, cytometry in solid phase. It counts as cell-based. Particulars: EDTA fixed at 7.5 mM. The method, then:
as §3, §5, §6, §7, §8, §9, §4, §10, §11

Test [9] deals with Escherichia coli, Pseudomonas aeruginosa and Serratia marcescens. As to the kind of experiment: Marking in the presence of chlorohexidine alone, Gram- strains. The following applies: tested range 0.01%, 0.005%, 0.001%. It counts as cell-based. The method, then: (§12) Test implementing chlorohexidine only as permeabilizing agent for favoring the penetration of the bacterial marking agent. […] The counting on a Petri dish at 48 hours takes place with the reference method. The results of this experiment with a composition of the reaction environment comprising chlorohexidine as cellular penetration reactant to improve the marking of Escherichia coli, Pseudomonas aeruginosa and Serratia marcescens (Gram (−) bacterial strains) and Staphylococcus epidermidis are illustrated in FIG. 8.

The test system of test [10] is Staphylococcus epidermidis. The test can be described thus: Marking in the presence of chlorohexidine alone, Gram+. Particulars: chlorohexidine 0.005%. Format: cell-based. Here is the method: as §12
For test [11], the system named is Pseudomonas aeruginosa. As to the kind of experiment: Marking in the presence of chlorohexidine alone in different environments. The following applies: bacteria in PBS, platelet concentrate, autologous plasma. Format: cell-based. Here is the method: Test implementing chlorohexidine only as permeabilizing agent for favoring the penetration of the bacterial marking agent. […] The counting on a Petri dish at 48 hours takes place with the reference method.

In test [12] the test system is Escherichia coli, Staphylococcus epidermidis, Serratia marcescens, Pseudomonas aeruginosa. As to the kind of experiment: Marking with association chlorohexidine/N-octyl glucopyranoside. The following applies: most elevated chlorohexidine concentration (0.001% vs 0.0005%) with NOG; PBS and platelet concentrate. It counts as cell-based. The text has this:
The results of this experiment showing the marking of DA and the detection of marked bacteria in the presence of a composition of the reaction environment comprising chlorohexidine in association with NOG for increasing the permeabilizing power and the penetration of the marker are illustrated in FIGS. 10A and 10B.

Regarding `CCCCCCCCO[C@@H]1O[C@H](CO)[C@@H](O)[C@H](O)[C@H]1O` [N octyl glucopyranoside, N-octyl β D-glucopyranoside], in the test with Pseudomonas aeruginosa [1], the “effect of addition on the marking of Pseudomonas aeruginosa” value was “positive effects”. Moreover, the “effect of addition on the marking of Staphylococcus epidermidis” value in [2] is “positive effects”.
On to `O=C([O-])CN(CCN(CC(=O)[O-])CC(=O)O)CC(=O)O.[Na+].[Na+]` [EDTA, disodic EDTA], for which the “marking of Gram- bacteria with EDTA by itself” value in the test on Escherichia coli [3] is “does not permit a correct marking”. Also, in [4], the “marking of Gram+ bacteria with EDTA by itself” value is given as “does not permit a correct marking”. The “EDTA concentration at which percentage of marked Escherichia coli is maximal” value in the test on Escherichia coli [5] (with nisine 0.1 μg/ml) amounted to 7.5 mM. In test [6] (associated with nisine 0.2 μg/ml), the “EDTA concentration giving better detection of the entirety of bacteria tested” value was found to be 7.5 mM.
In the case of nisine, in [7], the “preferable nisine concentration for marking” value is given as “low concentrations are preferable”. For the same molecule, the “marking of the Gram+ on addition of nisine” value in test [7] (PicoGreen) was “good marking”. Moreover, the “nisine concentration at which percentage of marked Escherichia coli is maximal” value with Escherichia coli [5] (with EDTA 7.5 mM) and with Escherichia coli [8] was 0.1 µg/mL in each case. For the same molecule, the “nisine concentration giving better detection of the entirety of bacteria tested” value in test [6] (associated with EDTA 7.5 mM) stood at 0.2 µg/mL.
`CC(=O)O.CC(=O)O.NC(=N\CCCCCC/N=C(N)/N=C(\N)Nc1ccc(Cl)cc1)/N=C(\N)Nc1ccc(Cl)cc1` [chlorohexidine, Diacetate chlorohexidine]: the “optimal concentration for the detection of Gram- bacteria” value in [9] is 0.005%. For the same molecule, the “effect on Gram+ bacteria” value in test [10] is listed as “toxic”. Besides, the “effect of plasma on cellular penetration of the marker with chlorohexidine” value in the test with Pseudomonas aeruginosa [11] is listed as “presence of plasma antagonizes the effect”. Also, the “marking of the bacteria” value in test [12] is given as “best marking”.
